In US20110183958A1, “AZETIDINE DERIVATIVES AS INHIBITORS OF STEAROYL-COENZYME A DELTA-9 DESATURASE” (Merck Frosst Canada Ltd., priority 2008, published 2011):

Biological target: T1, human SCD1 (hSCD-1) (Homo sapiens, UniProt O00767)
T1 construct: made in house; host or cells: baculovirus/Sf9
T1 sequence (O00767 1-359): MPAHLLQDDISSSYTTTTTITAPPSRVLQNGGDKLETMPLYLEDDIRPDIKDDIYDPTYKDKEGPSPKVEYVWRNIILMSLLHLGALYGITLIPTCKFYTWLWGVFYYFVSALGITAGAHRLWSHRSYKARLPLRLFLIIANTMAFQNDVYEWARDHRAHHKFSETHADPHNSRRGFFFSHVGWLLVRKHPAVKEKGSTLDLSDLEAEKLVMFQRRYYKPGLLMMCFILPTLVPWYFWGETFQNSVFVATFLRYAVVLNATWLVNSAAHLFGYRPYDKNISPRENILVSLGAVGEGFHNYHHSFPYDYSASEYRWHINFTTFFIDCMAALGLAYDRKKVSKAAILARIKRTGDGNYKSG
Test: SCD enzyme activity assay with reconstituted human SCD1 (hSCD-1)
Assay type: biochemical
Method: I. SCD Enzyme Activity Assay:
The potency of compounds of formula I against the stearoyl-CoA desaturase was determined by measuring the conversion of radiolabeled stearoyl-CoA to oleoyl-CoA using rat liver microsome or human SCD1 (hSCD-1) following previously published procedures with some modifications (Joshi, et al., J. Lipid Res., 18: 32-36 (1977); Talamo, et al., Anal. Biochem, 29: 300-304 (1969)). Liver microsome was prepared from male Wistar or Sprague Dawley rats on a high carbohydrate diet for 3 days (LabDiet # 5803, Purina). The livers were homogenized (1:10 w/v) in a buffer containing 250 mM sucrose, 1 mM EDTA, 5 mM DTT and 50 mM Tris-HCl (pH 7.5). After a 100,000×g centrifugation for […], the liver microsome pellet was suspended in a buffer containing 100 mM sodium phosphate, 20% glycerol, 2 mM DTT, and stored at −78° C. Human SCD1 desaturase system was reconstituted using human SCD1 from a baculovirus/Sf9 expression system, cytochrome B5 and cytochrome B5 reductase. Typically, test compound in 2 μL DMSO was incubated for 15 min at room temperature with 180 μL of the SCD enzyme in a buffer containing 100 mM Tris-HCl (pH 7.5), ATP (5 mM), Coenzyme-A (0.1 mM), Triton X-100 (0.5 mM) and NADH (2 mM). The reaction was initiated by the addition of 20 μL of [^3H]-stearoyl-CoA (final concentration=2 μM, radioactivity concentration=1 μCi/mL). After 10 min, the reaction mixture (80 μL) was mixed with a calcium chloride/charcoal aqueous suspension (100 μL, charcoal (10% w/v) plus 25 μL, CaCl2 (2N). After centrifugation to precipitate the radioactive fatty acid species, tritiated water released from 9,10-[^3H]-stearoyl-CoA by the SCD enzyme was quantified on a scintillation counter.

With `CS(=O)(=O)c1ccc(NC(=O)c2cnc(N3CC(Oc4cc(F)ccc4Br)C3)cn2)cc1` the IC50 was 11 nM.

Work on `COc1ccc(NC(=O)c2cnc(N3CC(Oc4cc(F)ccc4Br)C3)cn2)cc1` yielded an IC50 of 9 nM.

Work on `O=C(Nc1ccc2ccccc2c1)c1cnc(N2CC(Oc3cc(F)ccc3Br)C2)cn1` yielded an IC50 of 23 nM.

For `CNC(=O)c1cnc(N2CC(Oc3cc(F)ccc3Br)C2)cn1`, the IC50 was 45 nM.

`O=C(O)CCc1ccc(NC(=O)c2cnc(N3CC(Oc4cc(F)ccc4Br)C3)cn2)cc1` was tested, and the IC50 was 45 nM.

`O=C(Nc1ccc(-c2cc[nH]n2)cc1)c1cnc(N2CC(Oc3cc(F)ccc3Br)C2)cn1` was tested, and the IC50 was 16 nM.

With `O=C(Nc1ccsc1)c1cnc(N2CC(Oc3cc(F)ccc3Br)C2)cn1` the IC50 was 24 nM.

Compound `O=C(Nc1ccccc1)c1cnc(N2CC(Oc3cc(F)ccc3Br)C2)cn1` has an IC50 of 29 nM.
